The values that follow come from US5550145A, “Potentiation of antimicrobial effects” (Bioglan AB, priority 1992, dated 1996).

In brackets after ≈: the same amount, converted by molar mass.

One series deals with Gram positive bacteria. Particulars: effects demonstrated only on Gram positive bacteria; cited from earlier work.
The conditions of series [1]: generally accepted; cited from earlier work.
A further series concerns C. albicans. The series is described as follows: MIC (minimum inhibitory concentration) determination. The format is cell-based.
Another series deals with S. epidermis. The description is as above. The series is classed as cell-based.
The next series deals with S. aureus. The description is as above. The series is classed as cell-based.
A further series has as its system T. rubrum. The series is described as above. The series is classed as cell-based.
The next series concerns P. ovale. Described as above. The series is classed as cell-based.
The test system of another series is aerobic bacteria. Description: Killing effect. The format is cell-based. The settings on record: aqueous solutions of tinidazole; test not described. On the procedure: The composition was prepared as in Example 4. […] In particular, the product is usable for disease states such as acne and seborrhoea.

As for `CCCCCCCCCCCCCC(=O)OCC(O)CO` (stereo not shown) [monomyristin, monoglyceride of myristic acid], in the series with Gram positive bacteria, the “antimicrobial properties per se” value is on record as “exhibit certain antimicrobial properties”. Also, the toxicity result in series [1] is “completely non-toxic”.

As to `OCCCCCO` [1,5-pentanediol solution, 1,5-pentanediol], the MIC value stood at 40 mg/mL (≈ 384 mM) in the series on C. albicans; 50 mg/mL (≈ 480 mM) against S. epidermis; 50 mg/mL (≈ 480 mM) with S. aureus; 10 mg/mL (≈ 96 mM) against T. rubrum; 20 mg/mL (≈ 192 mM) in the series with P. ovale.

`CCS(=O)(=O)CCn1c([N+](=O)[O-])cnc1C` [tinidazole]: the “effectiveness of aqueous solutions against aerobic bacteria” value in the series with aerobic bacteria is reported as “not effective”.

As to `CCCCCCCCCCCC(=O)OCC(O)CO` (stereo not shown) [monolaurin, monoglyceride of lauric acid], the “antimicrobial properties per se” value in the series with Gram positive bacteria is listed as “exhibit certain antimicrobial properties”. In addition, the toxicity entry in series [1] is on record as “completely non-toxic”.
